Measurements as given in US10487348B2, “3-alpha-hydroxysteroid dehydrogenase mutants and process for the preparation of ursodeoxycholic acid” (Pharmazell GmbH, priority 2014, dated 2019).
Substitutions are numbered along the chain they refer to.

Columns and labels:
[1] = molecular target: T1, Comamonas testosteroni 3α-HSDH mutant [P185A], N-terminal hexahistidine tag (Comamonas testosteroni, UniProt P80702, P185A); test: Kinetics of 3α-HSDH [P185A], N-terminal His tag
T1 sequence (P80702 1-257 P185A): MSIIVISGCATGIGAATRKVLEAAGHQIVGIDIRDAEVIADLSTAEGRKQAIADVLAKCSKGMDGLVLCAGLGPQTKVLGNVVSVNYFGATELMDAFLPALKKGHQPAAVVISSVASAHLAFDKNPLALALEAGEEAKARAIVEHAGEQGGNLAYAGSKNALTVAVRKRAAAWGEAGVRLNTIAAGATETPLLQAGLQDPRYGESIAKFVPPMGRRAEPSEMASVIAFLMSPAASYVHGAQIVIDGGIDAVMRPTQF

[2] = molecular target: T2, Comamonas testosteroni 3α-HSDH dual mutant [P185A/T188A], N-terminal hexahistidine tag (Comamonas testosteroni, UniProt P80702, P185A/T188A); test: Kinetics of 3α-HSDH [P185A/T188A], N-terminal His tag
T2 sequence (P80702 1-257 P185A/T188A): T1 sequence (P80702 1-257 P185A) with T188A

[3] = molecular target: T3, Comamonas testosteroni 3α-HSDH mutant [T188A], N-terminal hexahistidine tag (Comamonas testosteroni, UniProt P80702, T188A); test: Kinetics of 3α-HSDH [T188A], N-terminal His tag
T3 sequence (P80702 1-257 T188A): T1 sequence (P80702 1-257 P185A) with A185P, T188A

[4] = molecular target: T4, Comamonas testosteroni 3α-HSDH mutant [T188G], N-terminal hexahistidine tag (Comamonas testosteroni, UniProt P80702, T188G); test: Kinetics of 3α-HSDH [T188G], N-terminal His tag; format: biochemical; details: DHCA
T4 sequence (P80702 1-257 T188G): T1 sequence (P80702 1-257 P185A) with A185P, T188G
Experimental: The activity of the 3α-HSDH and of the mutants was determined using a photometric assay, where the decrease in absorbance was measured at 340 nm over a period of 30 seconds.
The targeted exchange of amino acid radicals was performed analogously to Example 2B.
Following cultivation and expression, the cells were harvested, and the specific activities of the cell-free crude extracts were determined at substrate concentrations of 10 mM DHCA. The enzyme variants where the activity measurements with crude extract enzyme were most promising were purified by means of Ni-NTA chromatography, and their kinetic constants were determined by measurements with different DHCA concentrations of between 10 μM and 20 mM. In addition, an expression check by means of SDS PAGE was carried out for all mutants.

[5] = molecular target: T5, Comamonas testosteroni 3α-HSDH, wild type, C-terminal 9×His tag (SEQ ID NO: 51) (Comamonas testosteroni, UniProt P80702); test: Michaelis-Menten kinetics of 3α-HSDH with 9×His tag
T5 sequence (P80702 with tags, fused parts or gaps): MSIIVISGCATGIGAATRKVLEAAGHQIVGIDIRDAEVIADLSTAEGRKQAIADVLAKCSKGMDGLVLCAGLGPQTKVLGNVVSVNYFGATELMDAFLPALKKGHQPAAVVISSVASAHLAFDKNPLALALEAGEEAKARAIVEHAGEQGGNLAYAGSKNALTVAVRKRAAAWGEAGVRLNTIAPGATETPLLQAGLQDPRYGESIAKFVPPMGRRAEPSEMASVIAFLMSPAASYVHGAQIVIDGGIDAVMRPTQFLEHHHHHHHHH
Text: The His-tag allows for very simple purification of the HSDH protein since this sequence is bound with high specificity by specific chromatographic material (NTA (Ni-nitrilotriacetate)-modified support material, loaded with divalent nickel ions, for example “His Pur Ni-NTA” (Nimagen B. V., Nijmegen, The Netherlands)). To this end, the cell-free crude extract is applied to a dropping column comprising this material, which dropping column has previously been equilibrated with the disruption buffer (3 to 5 column volumes). Weakly binding protein was removed by washing with 3 to 5 column volumes of wash buffer (20 mM imidazole, 50 mM sodium phosphate, 300 mM NaCl, pH 8). […] The process was carried out at room temperature. The imidazole which was present was to be removed by buffer exchange.
Following expression (25° C., 0.5 mM, IPTG, 20 hours), the protein was purified, and the expression and the purification were checked by means of an SDS gel. […] The NADH concentration was 0.2 mM. Purified protein was employed in the measurements.

[6] = Table 14, substrate DHCA, tag N, apparent values
[7] = His tag length 9, DHCA 10 μM-10 mM, NADH 0.2 mM, purified

`C[C@H](CCC(=O)O)[C@H]1CC[C@H]2[C@@H]3C(=O)C[C@@H]4CC(=O)CC[C@]4(C)[C@H]3CC(=O)[C@]12C` [DHCA, dehydrocholic acid] was tested. Which kcat [1, 6] did it give?
The kcat was 48.5 s⁻¹.

And the vmax [1, 6]?
The vmax was 102.8 ± 5.7 U/mg.

And the remaining activity at 10000 µM ([1]; read-out: residual activity)?
Its remaining activity at 10000 µM is 5%.

What about the kcat [2, 6] of the same compound?
Its kcat is 17.6 s⁻¹.

What about the vmax [2, 6] of the same compound?
The vmax was 36.9 ± 2.6 U/mg.

What about the remaining activity at 10000 µM ([2]; read-out: residual activity) of the same compound?
The remaining activity at 10000 µM was about 30%.

What about the kcat [3, 6] of the same compound?
The kcat was 130.3 s⁻¹.

And the vmax [3, 6]?
Its vmax is 274.0 ± 11.6 U/mg.

What about the remaining activity at 20000 µM ([3]; read-out: residual activity) of the same compound?
Its remaining activity at 20000 µM is about 20%.

What about the substrate excess inhibition [4] of the same compound?
The substrate excess inhibition was “No pronounced substrate excess inhibition”.

And the “KM value better than the variant with 3 histidines” value ([5]; DHCA, 9 vs 3 histidines)?
Its value is 14 fold.

And the kcat [5, 7]?
Its kcat is 8.9 ± 0.5 s⁻¹.

What about the vmax [5, 7] of the same compound?
The vmax was 19.2 ± 1.1 U/mg.
